Test results taken from PMC9851200, “Multiparameter phenotypic screening for endogenous TFEB and TFE3 translocation identifies novel chemical series modulating lysosome function” (Autophagy, 2022).
pEC50, pKd: −log10 of the molar value.

Experiments:
[1] = target: MINK1/MINK (Homo sapiens, UniProt Q8N4C8); details: cited from earlier work
[2] = target: MAPK10/JNK3 (Homo sapiens, UniProt P53779); details: cited from earlier work
[3] = target: T1, PRKD2 (Homo sapiens, UniProt Q9BZL6); details: cited from earlier work
T1 sequence (Q9BZL6 1-878): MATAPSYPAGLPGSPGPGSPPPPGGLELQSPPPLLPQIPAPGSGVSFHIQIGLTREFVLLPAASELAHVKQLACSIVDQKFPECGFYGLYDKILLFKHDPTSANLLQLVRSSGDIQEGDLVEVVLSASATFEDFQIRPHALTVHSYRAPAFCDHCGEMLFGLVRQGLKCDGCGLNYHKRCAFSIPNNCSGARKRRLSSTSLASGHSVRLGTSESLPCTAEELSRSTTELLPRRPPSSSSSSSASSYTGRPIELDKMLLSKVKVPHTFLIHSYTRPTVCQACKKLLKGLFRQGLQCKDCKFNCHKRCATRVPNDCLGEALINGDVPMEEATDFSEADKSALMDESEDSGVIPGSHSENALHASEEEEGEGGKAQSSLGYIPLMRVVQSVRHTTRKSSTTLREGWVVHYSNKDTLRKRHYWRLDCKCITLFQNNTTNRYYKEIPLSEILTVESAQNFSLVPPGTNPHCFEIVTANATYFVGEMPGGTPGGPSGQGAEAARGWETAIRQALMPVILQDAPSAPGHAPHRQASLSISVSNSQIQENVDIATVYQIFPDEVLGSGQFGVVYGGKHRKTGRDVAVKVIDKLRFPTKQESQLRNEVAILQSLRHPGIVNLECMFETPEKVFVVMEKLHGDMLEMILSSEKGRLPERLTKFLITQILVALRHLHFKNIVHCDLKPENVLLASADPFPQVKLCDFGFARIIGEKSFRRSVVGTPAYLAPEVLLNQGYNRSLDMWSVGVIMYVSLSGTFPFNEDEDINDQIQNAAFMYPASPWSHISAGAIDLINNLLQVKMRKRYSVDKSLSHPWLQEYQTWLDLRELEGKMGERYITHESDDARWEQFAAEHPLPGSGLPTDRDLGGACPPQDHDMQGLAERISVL

[4] = target: MAPK9/JNK2 (Homo sapiens, UniProt P45984); details: cited from earlier work
MAPK9/JNK2, sequence (P45984 whole entry): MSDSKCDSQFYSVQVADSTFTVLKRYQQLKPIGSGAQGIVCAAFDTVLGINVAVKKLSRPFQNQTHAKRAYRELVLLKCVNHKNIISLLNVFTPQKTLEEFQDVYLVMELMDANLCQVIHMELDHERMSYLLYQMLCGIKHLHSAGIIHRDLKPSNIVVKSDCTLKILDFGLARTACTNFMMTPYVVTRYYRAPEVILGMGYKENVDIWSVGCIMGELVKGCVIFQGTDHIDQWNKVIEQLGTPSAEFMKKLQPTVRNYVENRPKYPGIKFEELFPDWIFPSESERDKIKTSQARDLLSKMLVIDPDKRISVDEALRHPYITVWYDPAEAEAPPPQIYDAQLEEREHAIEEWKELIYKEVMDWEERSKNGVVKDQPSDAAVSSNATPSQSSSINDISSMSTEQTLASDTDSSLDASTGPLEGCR

[5] = target: STK10/LOK (Homo sapiens, UniProt O94804); details: cited from earlier work
STK10/LOK, sequence (O94804 whole entry): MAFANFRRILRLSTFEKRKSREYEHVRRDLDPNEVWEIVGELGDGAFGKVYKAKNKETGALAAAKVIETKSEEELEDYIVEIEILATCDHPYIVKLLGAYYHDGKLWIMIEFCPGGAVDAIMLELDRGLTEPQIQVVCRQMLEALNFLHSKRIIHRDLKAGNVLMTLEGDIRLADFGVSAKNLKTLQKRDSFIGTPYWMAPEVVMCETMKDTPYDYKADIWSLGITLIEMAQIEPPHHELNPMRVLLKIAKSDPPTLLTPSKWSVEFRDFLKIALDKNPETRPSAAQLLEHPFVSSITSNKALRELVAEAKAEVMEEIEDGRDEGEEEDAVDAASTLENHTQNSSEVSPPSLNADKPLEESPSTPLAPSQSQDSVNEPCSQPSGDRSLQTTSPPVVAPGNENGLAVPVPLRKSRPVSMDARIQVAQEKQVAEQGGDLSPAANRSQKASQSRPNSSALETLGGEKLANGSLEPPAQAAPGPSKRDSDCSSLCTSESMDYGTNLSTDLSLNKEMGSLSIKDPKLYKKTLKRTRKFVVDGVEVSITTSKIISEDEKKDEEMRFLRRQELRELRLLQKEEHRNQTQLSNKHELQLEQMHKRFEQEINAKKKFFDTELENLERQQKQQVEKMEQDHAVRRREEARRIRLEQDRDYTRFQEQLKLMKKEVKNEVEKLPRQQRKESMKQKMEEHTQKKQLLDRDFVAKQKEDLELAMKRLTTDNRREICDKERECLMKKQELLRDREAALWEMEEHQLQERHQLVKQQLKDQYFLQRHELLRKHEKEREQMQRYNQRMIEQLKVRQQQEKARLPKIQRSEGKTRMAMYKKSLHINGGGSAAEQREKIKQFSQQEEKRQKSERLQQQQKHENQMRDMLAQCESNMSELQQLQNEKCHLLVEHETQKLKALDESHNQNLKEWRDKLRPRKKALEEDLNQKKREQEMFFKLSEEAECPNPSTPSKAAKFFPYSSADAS

[6] = target: CSNK1E (Homo sapiens, UniProt P49674); details: cited from earlier work
CSNK1E, sequence (P49674 whole entry): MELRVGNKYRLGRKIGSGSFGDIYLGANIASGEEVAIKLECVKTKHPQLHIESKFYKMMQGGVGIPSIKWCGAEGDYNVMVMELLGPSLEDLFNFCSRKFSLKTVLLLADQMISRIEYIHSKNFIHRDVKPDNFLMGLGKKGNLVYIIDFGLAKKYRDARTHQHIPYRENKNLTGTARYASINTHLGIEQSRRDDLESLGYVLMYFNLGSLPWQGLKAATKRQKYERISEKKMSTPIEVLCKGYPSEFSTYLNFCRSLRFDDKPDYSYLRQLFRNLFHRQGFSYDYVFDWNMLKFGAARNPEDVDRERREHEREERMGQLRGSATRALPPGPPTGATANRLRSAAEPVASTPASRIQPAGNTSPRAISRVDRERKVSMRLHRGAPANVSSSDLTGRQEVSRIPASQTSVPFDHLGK

[7] = target: T2, TGFBR1 (Homo sapiens, UniProt P36897); details: cited from earlier work
T2 sequence (P36897 34-503): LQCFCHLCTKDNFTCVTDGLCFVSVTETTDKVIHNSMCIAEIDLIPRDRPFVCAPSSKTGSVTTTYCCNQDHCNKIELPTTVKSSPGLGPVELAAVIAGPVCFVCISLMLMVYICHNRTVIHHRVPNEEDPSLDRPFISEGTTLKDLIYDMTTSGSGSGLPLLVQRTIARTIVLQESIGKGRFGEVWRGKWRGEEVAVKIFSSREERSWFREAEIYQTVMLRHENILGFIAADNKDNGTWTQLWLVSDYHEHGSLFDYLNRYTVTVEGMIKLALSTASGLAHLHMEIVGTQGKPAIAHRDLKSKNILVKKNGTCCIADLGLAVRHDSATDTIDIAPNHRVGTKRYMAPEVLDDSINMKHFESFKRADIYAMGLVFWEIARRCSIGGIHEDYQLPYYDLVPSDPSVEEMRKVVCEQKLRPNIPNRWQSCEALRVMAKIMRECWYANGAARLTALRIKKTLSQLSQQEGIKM

[8] = target: BMPR1B (Homo sapiens, UniProt O00238); details: cited from earlier work
BMPR1B, sequence (O00238 14-502): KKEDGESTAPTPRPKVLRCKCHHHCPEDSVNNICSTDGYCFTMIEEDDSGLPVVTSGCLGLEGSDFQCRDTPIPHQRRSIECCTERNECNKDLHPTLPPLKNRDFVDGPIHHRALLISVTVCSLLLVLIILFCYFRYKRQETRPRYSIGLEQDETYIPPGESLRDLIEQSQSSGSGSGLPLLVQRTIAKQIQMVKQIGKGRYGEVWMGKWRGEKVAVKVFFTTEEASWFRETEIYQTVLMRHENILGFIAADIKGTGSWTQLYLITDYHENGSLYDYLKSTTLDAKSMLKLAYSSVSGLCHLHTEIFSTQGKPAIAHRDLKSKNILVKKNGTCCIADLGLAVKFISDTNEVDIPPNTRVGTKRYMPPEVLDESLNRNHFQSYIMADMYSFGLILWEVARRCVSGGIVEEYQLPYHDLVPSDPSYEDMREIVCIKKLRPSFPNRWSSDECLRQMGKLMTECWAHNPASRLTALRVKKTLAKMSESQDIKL

[9] = test system: SH-SY5Y cells; experiment: AK (adenylate kinase) release ToxiLight cytotoxicity assay; details: for AK: PKIS2 primary screening
Procedure: Total cell lysis with 5 µL 5% Triton-X 100 (Sigma-Aldrich, T8787) is used as a positive control for the assay and toxicity is expressed as a percentage of luminescence under DMSO conditions.

[10] = target: CIT (Homo sapiens, UniProt O14578); details: cited from earlier work
[11] = test system: ALK5/TGFBR1; details: cited from earlier work
[12] = test system: TFEB or TFE3; experiment: EC50 line in the head of Table S5 (cellular activity of the analogs, assay not given); assay type: cell-based; details: assay not named, unit printed only in the first two cells
Procedure: Figure S5. Activity of quinazoline analogs. […] Compounds were screen at 24-h treatment time up to 5 µM concentration. Data for each compound is represented on single graphs with their structures shown. n=1 for all above assays, mean±s.d. (B) Representative western blot of TFEB levels following treatment of compounds followed by fractionation into cytoplasmic (C) and nuclear (N) compartments. Successful fractionation represented by enrichment of GAPDH in the cytoplasmic fraction and LMNA (lamin A/C) in the nuclear compartment. (C) The levels of nuclear/cytoplasmic TFEB were quantified and presented as a ratio. A paired one-way ANOVA with a Holm-Šídák's multiple comparisons test was performed relative to DMSO for comparison between each compound treatments (n=3).

[13] = target: T2, TGFBR1; experiment: TGFBR1 binding KD (Table S3)
Text: Supplement KAUP_A_2095834_SM5251.zip/Supplementary Tables R7.xlsx, sheet "Table S3 - Analogues"

[14] = target: CDC42BPG/DMPK2 (Homo sapiens, UniProt Q6DT37); assay type: binding

MINK1/MINK, sequence (Q8N4C8 whole entry): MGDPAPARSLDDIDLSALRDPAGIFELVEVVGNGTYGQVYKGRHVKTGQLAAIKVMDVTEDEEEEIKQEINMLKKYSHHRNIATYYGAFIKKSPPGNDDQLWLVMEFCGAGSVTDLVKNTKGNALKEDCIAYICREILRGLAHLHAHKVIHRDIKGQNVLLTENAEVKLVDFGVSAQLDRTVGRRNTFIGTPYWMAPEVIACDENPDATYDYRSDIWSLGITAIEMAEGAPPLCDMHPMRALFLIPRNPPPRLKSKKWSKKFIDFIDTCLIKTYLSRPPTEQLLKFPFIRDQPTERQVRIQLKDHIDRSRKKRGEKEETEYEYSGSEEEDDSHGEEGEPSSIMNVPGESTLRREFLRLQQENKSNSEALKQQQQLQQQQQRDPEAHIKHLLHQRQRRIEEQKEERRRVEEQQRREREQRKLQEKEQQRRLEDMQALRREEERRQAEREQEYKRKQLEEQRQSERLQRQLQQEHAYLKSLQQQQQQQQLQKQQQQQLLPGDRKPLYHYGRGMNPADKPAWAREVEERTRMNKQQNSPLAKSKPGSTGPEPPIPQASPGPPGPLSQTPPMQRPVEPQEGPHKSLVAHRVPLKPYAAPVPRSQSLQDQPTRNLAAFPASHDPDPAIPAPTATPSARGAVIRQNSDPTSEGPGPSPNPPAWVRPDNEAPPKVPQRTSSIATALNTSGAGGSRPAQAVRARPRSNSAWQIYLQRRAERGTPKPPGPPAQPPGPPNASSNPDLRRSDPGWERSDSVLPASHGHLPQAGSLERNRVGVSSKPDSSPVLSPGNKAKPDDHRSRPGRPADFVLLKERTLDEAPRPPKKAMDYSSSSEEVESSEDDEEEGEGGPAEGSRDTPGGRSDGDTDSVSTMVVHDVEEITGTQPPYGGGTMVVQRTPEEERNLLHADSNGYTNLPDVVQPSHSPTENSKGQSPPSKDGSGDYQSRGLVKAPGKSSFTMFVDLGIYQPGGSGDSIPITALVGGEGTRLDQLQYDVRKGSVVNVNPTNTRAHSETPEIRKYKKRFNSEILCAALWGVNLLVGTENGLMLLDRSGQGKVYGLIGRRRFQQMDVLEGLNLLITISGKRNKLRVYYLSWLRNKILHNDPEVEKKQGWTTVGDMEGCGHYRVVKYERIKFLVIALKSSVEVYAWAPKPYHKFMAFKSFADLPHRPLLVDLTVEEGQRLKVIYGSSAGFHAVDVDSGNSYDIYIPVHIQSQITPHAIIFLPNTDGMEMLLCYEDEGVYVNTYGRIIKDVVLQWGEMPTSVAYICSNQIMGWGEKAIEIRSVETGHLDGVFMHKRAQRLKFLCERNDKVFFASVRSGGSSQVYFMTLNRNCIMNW
MAPK10/JNK3, sequence (P53779 whole entry): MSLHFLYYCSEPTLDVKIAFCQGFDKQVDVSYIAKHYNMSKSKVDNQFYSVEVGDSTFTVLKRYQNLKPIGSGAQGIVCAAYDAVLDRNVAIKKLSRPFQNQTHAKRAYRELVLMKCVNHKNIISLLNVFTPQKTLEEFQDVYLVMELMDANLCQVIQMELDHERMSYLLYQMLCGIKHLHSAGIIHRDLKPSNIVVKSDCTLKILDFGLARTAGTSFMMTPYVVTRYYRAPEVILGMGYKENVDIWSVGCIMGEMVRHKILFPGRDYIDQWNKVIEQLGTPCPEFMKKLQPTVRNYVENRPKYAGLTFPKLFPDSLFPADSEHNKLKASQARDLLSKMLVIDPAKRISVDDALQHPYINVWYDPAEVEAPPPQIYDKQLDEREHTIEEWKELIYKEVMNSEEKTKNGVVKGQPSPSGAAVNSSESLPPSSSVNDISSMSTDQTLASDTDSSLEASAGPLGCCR

Structure (SMILES)	KINOMEscan binding MINK1/MINK [1] [%]	KINOMEscan binding MAPK10/JNK3 [2] [%]	KINOMEscan binding PRKD2 [3] [%]	KINOMEscan binding MAPK9/JNK2 [4] [%]	KINOMEscan binding STK10/LOK [5] [%]	KINOMEscan binding CSNK1E [6] [%]	KINOMEscan binding BMPR1B [8] [%]	AK [9]	KINOMEscan binding CIT [10] [%]	further results
Cc1ccc(-c2nc(Nc3ccncc3)c3ccccc3n2)s1 [GSK189015]	2	14	14	19	1	22	0	70.77	42	KINOMEscan binding TGFBR1 [7]: 6%
COc1ccc2nc(-c3cccc(C)n3)nc(Nc3ccncc3)c2c1 [GSK204919]	30	36	98.8	60	0	64	0	106.43	73	
Cc1cccc(-c2cc(Nc3ccncc3)c3ccccc3n2)n1 [GSK223675]			96			50	0	117.83	23	
Cc1cccc(-c2nc(C)cc(Nc3ccncc3)n2)n1 [GSK257997]	6	32	80	43	0	42	0	66.29	23	TGFBR1 binding [11]: 0.025 µM; KINOMEscan binding TGFBR1 [7]: 100%
Cc1cccc(-c2nc(Nc3ccncc3)c3ccccc3n2)n1 [GW855857]			99			77	29	89.05	91.1	
Cc1cccc(-c2nc(Nc3ccc4nn[nH]c4c3)c3ccccc3n2)n1 [GW867587]	0	0	98.1	0	0	0	0	54.27	15	TGFBR1 binding [11]: 0.59 µM; KINOMEscan binding TGFBR1 [7]: 32%
Cc1cccc(-c2nc(Nc3ccc4ncsc4c3)c3ccccc3n2)n1 [GW867588]	0	0	99.8	8	27	6	0	60.47	13	KINOMEscan binding TGFBR1 [7]: 55%
Cc1csc(-c2nc(Nc3ccncc3)c3ccccc3n2)n1 [GW869640]			78			41	42	59.35	61	
Cc1cccc(-c2nc(Nc3ccncc3)c3sccc3n2)n1 [GW869641]			99.6			94.9	82	80.75	96.6	
Cc1cc(Nc2nc(-c3cccc(C)n3)nc3ccccc23)ccn1 [GW872411]	1	0	99.9	14	0	31	0	69.93	0	KINOMEscan binding TGFBR1 [7]: 83%
Clc1cccc(-c2nc(Nc3ccncc3)c3ccccc3n2)c1 [GW873004]			45			23	4	129.21	57	TGFBR1 binding [11]: 0.65 µM
Cc1cccc(-c2nc(Nc3cccc(C(N)=O)c3)c3ccccc3n2)n1 [GW876019]			66			15	0	199.56	45	
Cc1cccc(-c2nc(Nc3ccc4c(cnn4C)c3)c3ccccc3n2)n1 [GW876731]			99.6			37	0	73.05	12	
Cc1cccc(-c2nc(Nc3ccc4ncsc4c3)c3ccccc3n2)n1 [NK140]										pEC50 [12]: 6.19; AK signal (in words) ([9]; SH-SY5Y, 24 h treatment): reduced; Cellular toxicity (AK release and nuclear count, in words) ([9]; SH-SY5Y, 24 h treatment): no increases in DQ Red BSA intensity or cellular toxicity; AK release (in words) ([9]; SH-SY5Y, 48 h treatment): without increases in AK; pKd [13]: 5.30
Cc1cccc(-c2nc(Nc3ccc4nn(C)cc4c3)c3ccccc3n2)n1 [NK167]										KINOMEscan CDC42BPG/DMPK2 [14]: 0; pEC50 [12]: 6.00
Cc1cccc(-c2nc(Nc3ccncc3)c3ccccc3n2)n1 [NK215]										KINOMEscan PRKD2 ([3]; PRKD2, Published KINOMEscan, ref original PKIS2 published data): 99; KINOMEscan CSNK1E ([6]; CSNK1E, Published KINOMEscan, ref original PKIS2 published data): 77; KINOMEscan BMPR1B ([8]; BMPR1B, Published KINOMEscan, ref original PKIS2 published data): 29; KINOMEscan CIT ([10]; CIT, Published KINOMEscan, ref original PKIS2 published data): 91.1; pKd [13]: 8.02
Cc1cccc(-c2nc(N(C)c3ccc4ncsc4c3)c3ccccc3n2)n1 [NK-161]										KINOMEscan CDC42BPG/DMPK2 [14]: 21; pEC50 [12]: 5.96
